Experimental findings from PMC10861593, “Kisspeptin-10 binding to Gpr54 in osteoclasts prevents bone loss by activating Dusp18-mediated dephosphorylation of Src” (Nature Communications, 2024) are described below.

Where a SMILES comes first, the peptide text is derived from it.

As a reminder, the Kd is the constant that tells how readily two partners part at equilibrium. Low readings indicate a tighter complex, high ones a looser complex.

In assay [1] the target is T1, DUSP18 (Homo sapiens, UniProt Q8NEJ0).
T1 construct: For purification of full-length WT human DUSP18 and DUSP18 (C104S) proteins; His (N); made in house; host or cells: E. coli
T1 sequence (Q8NEJ0 1-188): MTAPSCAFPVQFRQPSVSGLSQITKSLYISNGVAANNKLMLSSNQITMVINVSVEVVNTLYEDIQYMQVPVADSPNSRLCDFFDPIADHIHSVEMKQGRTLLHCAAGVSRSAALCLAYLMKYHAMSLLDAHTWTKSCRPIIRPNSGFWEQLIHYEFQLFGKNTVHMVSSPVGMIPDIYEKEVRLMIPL
The assay can be described thus: SPR (Biacore T200) binding to DUSP18. On the procedure:
SPR was determined using a Biacore T200 instrument (GE). SRC or DUSP18 protein was immobilized on the sensor chip (CM5) using the amine-coupling method according to standard protocols. Immobilization was performed according to the manufacturer’s recommendations. SRC protein (64 ug/mL, pH5.0) or DUSP18 protein (25 ug/mL, pH7.4) was diluted in 10 mM acetate buffer or 10 mM PBS buffer. Sh2-sh3 (100 ug/mL, pH5.0) was diluted in 10 mM acetate buffer. The kinetics and affinity assay were examined at 25 °C at a flow rate of 30 µl/minute using PBS buffer with 0.05% Tween-20. The KD values were calculated with the kinetics analysis (1:1 model) of Biacore T200 evaluation software. The interaction of GPR54 CT, peptides of PR motifs with Src or DUSP18, and the interaction of DUSP18 and Src were analyzed respectively by regeneration with pH 2.0 Gly-HCl buffer.
The C terminus of human GPR54 (H329- L398) and mouse Gpr54 (R331- L396) cDNAs were subcloned into a pGEX-4T2 vector. For purification of full-length WT human DUSP18 and DUSP18 (C104S) proteins, DUSP18 was cloned into pMCSG7 vector. […]
Background: SPR reads the build-up and loss of mass on a sensor chip optically.

The next assay relates to GPR54 / Src interaction. The experiment in a line: Co-IP: interaction of GPR54 with Src in transfected 293T cells. It counts as cell-based, human. Conditions: inhibitor 1 h (U73122 10 µM, Staurosporine 0.25 µM, LY3214996 10 µM, KN-93 10 µM, Saracatinib 10 µM), then 10 nM Kp-10 20 min. As for the experimental part: Data represent means ± SEM. P values were determined by one-way ANOVA analysis (b, c, e, g, i, k). Representative results were obtained from at least three independent experiments. Source data are provided as a Source Data file.
Whole-cell proteins were extracted using 1x RIPA buffer (25 mM Tris, pH7.5, 150 mM NaCl, 0.5% Sodium deoxycholate, 1% Triton-X-100) supplemented with protease inhibitors (Complete Mini, Roche) and phosphatase inhibitors (phosphatase inhibitor cocktail set I and II, Calbiochem). Immunoprecipitation and immunoblotting with indicated antibodies were performed as described in Supplementary Table 1. Image Jsoftware (V1.52) was used for quantification analysis. Uncropped and unprocessed blots are presented in the Supplementary Information file.
Error bars are ± SEM. […] Source data are provided as a Source Data file.

The next assay concerns Dusp18 knockout mice. The experiment in a line: bone and osteoclast parameters in Dusp18 knockout mice. The following applies: TRAP staining and osteoclast parameters, femur. It counts as in vivo, mouse. The text has this: Data represent means ± SEM. […] Representative results were obtained from at least three independent experiments. Source data are provided as a Source Data file.

Assay [2] has as its system DUSP18. The assay can be described thus: GST pull-down with WCL of 293T cells transfected with DUSP18. It counts as binding. The following applies: WCL of 293T cells transfected with DUSP18-HA. On the procedure:
Beads were analyzed by phosphatase activity assay (a), mass spectrometry assay (b), IB analysis (c) and quantification of protein levels (d). e, f Protein co-localization was analyzed by IF staining in primary pre-osteoclast with 10 nM Kp-10 treatment for 20 min. […] Scale bar, 50 µm. g, h binding affinity was measured by SPR binding analysis. […] Data represent means ± SEM. P values were determined by one-way ANOVA analysis (a, d, j, l) or two-tailed Student’s t-test (f). Representative results were obtained from at least three independent experiments. Source data are provided as a Source Data file.
Supplementary Fig. 6 a, b IB and quantification of protein levels analysis. […] Error bars are ± SEM. P-values were determined by two-tailed Student’s t-test (b, e) or by one-way ANOVA analysis (h, j). *P <0.05, **P <0.01, ***P <0.001, ****P <0.0001. Representative results were observed from at least three independent experiments. Source data are provided as a Source Data file.

A further assay deals with Src. The experiment in a line: GST pull-down with WCL of 293T cells transfected with HA-Src. It counts as binding. The text has this:
Fig. 2 GPR54 recruited Src via the PR motif in GPR54 C-Terminus. a Sequence analysis of the PR motif in multiple species of GPR54 CT. b SH3 domain protein-binding array using the TranSignal™ SH3 Domain Array kit. The principal Src binding region is circled in red evident (1 Src; 2 the dilution of Src in half). c SPR binding-affinity measurement of Src and GPR54 CT. […] GPR54 CT bound with the SH3 domain of Src mainly via the key residues including R336, P339 and P342. e–h IB analysis of total samples and GST pull-downs using GST proteins including GST, GST-GPR54 CT, GST-GPR54 CT m1 (R336A&P339A), GST-GPR54 CT m2 (delta 339–344) incubated separately with WCL of 293 T cells transfected with HA-Src (e) and quantification of protein levels (f), IB analysis of WCL and anti-GPR54 IP assays derived from RAW264.7 cells induced by Kp-10 for 20 min (g) and quantification of protein levels (h). i, j IF staining was carried out using pre-osteoclasts differentiated from BMMs with M-CSF (10 ng/ml) and RANKL (50 ng/ml) stimulation for 2 days, then treated with 10 nM Kp-10 for 20 min. Representative images of endogenous Gpr54 and Src were shown by total internal reflection fluorescence (TIRF) microscopy (i), and the Mander’s overlap coefficient (MOC) as a measure of colocalization in cells from multiple images taken randomly (j). Scale bar, 50 μm. Data represent means ± SEM. […] These are best readings. […]

Assay [3] concerns the target T2, His-SRC protein, Src (G85-L536) (human, UniProt P12931 85-536).
T2 construct: human Src, G85-L536, in pFastBac HT B; In the SPR it is called 'SRC protein'; removal of the tag is not mentioned; source: Sf9 (Bac-to-Bac baculovirus), purified; not shown: His6, N-terminal, kept
The assay can be described thus: SPR; Biacore T200, SRC protein immobilised on CM5 by amine coupling (64 ug/mL, pH 5.0, acetate); 25 °C, 30 µl/minute, PBS with 0.05% Tween-20; kinetics analysis, 1:1 model. Conditions: both partners purified.

Take `CC(C)[C@H](NC(=O)[C@@H](N)CCCNC(=N)N)C(=O)N[C@@H](CS)C(=O)N1CCC[C@H]1C(=O)N[C@@H](CS)C(=O)N[C@@H](CS)C(=O)N[C@@H](CCCNC(=N)N)C(=O)O` [Gpr54^336–342] (H-RVCPCCR-OH; N-terminus and C-terminus assumed): at DUSP18 [1] (printed in the picture of the figure, read-out: ka), the kon stood at 1130 ± 9500 M⁻¹ s⁻¹.
For the molecule `COc1ccc(S(=O)(=O)N(CCO)c2ccccc2CN(C)C/C=C/c2ccc(Cl)cc2)cc1` [KN-93], the “effect on Kp-10 induced interaction of GPR54 with Src” value with GPR54 / Src interaction was “not by the inhibitors”.
Turning to `O=C(Cc1ccc(-c2ccc(OCCN3CCOCC3)cc2)cn1)NCc1ccccc1` [KX2-391], the “rescue of Dusp18 deletion induced osteoclast activity” value in the assay with Dusp18 knockout mice was “efficiently rescued”.
In the case of `COc1ccc2c(c1)CC[C@@H]1[C@@H]2CC[C@]2(C)[C@@H](NCCCCCCN3C(=O)C=CC3=O)CC[C@@H]12` [U73122], the “effect on Kp-10 induced interaction of GPR54 with Src” value in the assay on GPR54 / Src interaction is “not by the inhibitors”.
Turning to “Gpr54^339–344: right-shifted mouse Gpr54 peptide which corresponds to the PxxRxR motif (PCCRQR)”, in the assay with DUSP18 [1] (synthesized mouse Gpr54 peptide), the “SPR curve when titrated with Dusp18” value is “generated an unfitted SPR curve”.
Turning to “R336A&P339A mutant of human GPR54 CT: GST-GPR54 CT m1 (R336A&P339A)”, the “binding of DUSP18 (GST pull-down)” value with DUSP18 [2] is “dampened its interaction with DUSP18”. The “binding of Src (GST pull-down)” value with Src is given as “dramatically dampened the interaction of Src with GPR54 CT”.

B1: △339–344 (deletion sign: △) mutant of GPR54 CT: GST-GPR54 CT m2 (delta 339–344) (protein)
chain: HFRQAFRRVCPRRPRRPGPSDPAAPHAELLRLGSHPAPARAQKPGSSGLAARGLCVLGEDNAPL
modifications: left off: GST, N-terminal, kept
As to B1, the “binding of DUSP18 (GST pull-down)” value in the assay with DUSP18 [2] is listed as “abolished the binding with DUSP18”. The “binding of Src (GST pull-down)” value in the assay with Src is on record as “completely abolished the binding of Src with GPR54 CT”.

B2: peptide of GPR54^336–356 (peptide, UniProt Q969F8 336-356, looked up)
peptide: RVCPCAPRRPRRPRRPGPSDP
notes: human GPR54 (KiSS1R), residues 336-356 of the PR motif; source: synthetic peptide (GL Biochem)
Regarding B2, binding in assay [3] was put at a Kd of 4.24 µM.

B3: GPR54^333–344 (N-terminal half of the PR motif) (peptide, UniProt Q969F8 333-344, looked up)
peptide: AFRRVCPCAPRR
notes: source: synthetic peptide (GL Biochem)
In turn, B3 returned a Kd in assay [3] of 28.3 µM.
